# Experimental data as given in ChEMBL document CHEMBL5143709, “Synthesis and characterization of an orally bioavailable small molecule agonist of the apelin receptor” (Bioorg Med Chem, 2022).
# How the values were obtained:
# [1] = biological target: T1, Apelin receptor (Homo sapiens, UniProt P35414); experiment: Agonist activity at human APJ receptor expressed in CHO cells co-expressing Galphaq16 assessed as stimulation of Ca2+ mobilization measured at 1 sec interval for 90 sec by fluorescent Calcium 5-dye based FLIPR-calcium mobilization assay; assay type: functional, cell-based
# T1 sequence (P35414 whole entry): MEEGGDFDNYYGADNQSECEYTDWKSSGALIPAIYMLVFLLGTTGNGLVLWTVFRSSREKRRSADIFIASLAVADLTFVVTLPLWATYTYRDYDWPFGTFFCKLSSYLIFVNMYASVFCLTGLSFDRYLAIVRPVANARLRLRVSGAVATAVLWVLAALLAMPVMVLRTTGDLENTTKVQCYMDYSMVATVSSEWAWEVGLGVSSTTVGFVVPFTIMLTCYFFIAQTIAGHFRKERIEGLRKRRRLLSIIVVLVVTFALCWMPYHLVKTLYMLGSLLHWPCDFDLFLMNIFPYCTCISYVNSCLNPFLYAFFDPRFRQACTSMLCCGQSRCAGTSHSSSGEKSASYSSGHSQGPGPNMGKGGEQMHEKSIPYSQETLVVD
# [2] = biological target: T1, Apelin receptor; experiment: Agonist activity at human APJ receptor expressed in CHO cells assessed as inhibition of forskolin-induced cAMP accumulation measured after 30 mins by TR-FRET based LANCE cAMP assay; assay type: functional, cell-based
# [3] = Metabolic stability in Sprague-Dawley rat liver microsomes assessed as parent compound remaining at 1 uM measured after 30 mins in the presence of NADPH by LC-MS analysis
# [4] = Apparent permeability from basolateral to apical side in human Caco-2 cells by LC-MS/MS analysis; assay type: ADME, cell-based
# [5] = Apparent permeability from apical to basolateral side in human Caco-2 cells by LC-MS/MS analysis; assay type: ADME, cell-based
# [6] = Efflux ratio of apparent permeability from basolateral to apical side over apical to basolateral side in human Caco-2 cells by LC-MS/MS analysis; assay type: ADME, cell-based
# [7] = biological target: T2, Apelin receptor (Homo sapiens) (UniProt P35414); experiment: Agonist activity at human AGTRL1 expressed in CHO-K1 cells assessed as induction of beta-arrestin 2 recruitment by measuring maximal efficacy incubated for 90 mins by PathHunter assay relative to control; assay type: functional, cell-based; settings: filed as agonist
# T2 sequence (whole entry): T1 sequence (P35414 whole entry)
# [8] = Solubility of the compound at pH 7.4; assay type: physicochemical; settings: buffer
# [9] = biological target: T1, Apelin receptor; experiment: Agonist activity at human AGTRL1 expressed in CHO-K1 cells assessed as induction of beta-arrestin 2 recruitment incubated for 90 mins by PathHunter assay; assay type: functional, cell-based
# [10] = Plasma protein binding in rat by LC-MS/MS analysis; assay type: ADME, cell-free; settings: read-out: PPB (converted)
# [11] = Oral bioavailability in Sprague-Dawley rat at 10 mg/kg measured upto 24 hrs by LC-MS/MS analysis; assay type: ADME, organism-based; settings: in vivo
# [12] = MRT in Sprague-Dawley rat at 10 mg/kg, po measured upto 24 hrs by LC-MS/MS analysis; assay type: ADME, organism-based; settings: in vivo
# [13] = Tmax in Sprague-Dawley rat at 10 mg/kg, po measured upto 24 hrs by LC-MS/MS analysis; assay type: ADME, organism-based; settings: in vivo
# [14] = Clearance in Sprague-Dawley rat at 10 mg/kg, po measured upto 24 hrs by LC-MS/MS analysis; assay type: ADME, organism-based; settings: in vivo
# [15] = AUC in Sprague-Dawley rat at 10 mg/kg, po measured upto 24 hrs by LC-MS/MS analysis; assay type: ADME, organism-based; design: time < 24 hrs, dose 10 mg/kg, route po; settings: in vivo
# [16] = Half-life in Sprague-Dawley rat at 10 mg/kg, po measured upto 24 hrs by LC-MS/MS analysis; assay type: ADME, organism-based; settings: in vivo
# [17] = Cmax in Sprague-Dawley rat at 10 mg/kg, po measured upto 24 hrs by LC-MS/MS analysis; assay type: ADME, organism-based; design: dose 10 mg/kg, time < 24 hrs, route po; settings: in vivo
Structure (SMILES),EC50 [1],EC50 [2],"remaining at 0.5 h, 1 µM [3]",also measured
O=C(C[C@H](CCN1CCCCC1)NC(=O)c1cc(-c2cscn2)n(C2CCCC2)n1)NC1CCC1,> 10000 nM,–,–,–
CN(CC[C@@H](CC(=O)NC1CCC1)NC(=O)c1cc(-c2ccccc2C(F)(F)F)n(C2CCCC2)n1)C1CCCCC1,14 nM,2 nM,65.2%,Papp B→A [4]: 68 ×10⁻⁶ cm/s
O=C(C[C@H](CCN1CCCCC1)NC(=O)c1cc(-c2ccsc2C(F)(F)F)n(C2CCCC2)n1)NC1CCC1,538 nM,–,–,–
O=C(C[C@@H](CN1CCCC(F)(F)C1)NC(=O)c1cc(-c2ccccc2C(F)(F)F)n(C2CCCC2)n1)NC1CCC1,910 nM,–,–,–
CC(F)(F)c1ccccc1-c1cc(C(=O)N[C@@H](CCN2CCCCC2)CC(=O)NC2CCC2)nn1C1CCCC1,–,4.3 nM,77.1%,–
O=C(C[C@H](CCN1CC2(COC2)C1)NC(=O)c1cc(-c2ccccc2C(F)(F)F)n(C2CCCC2)n1)NC1CCC1,162 nM,–,–,–
O=C(C[C@@H](CN1CCC(F)(F)C1)NC(=O)c1cc(-c2ccccc2C(F)(F)F)n(C2CCCC2)n1)NC1CCC1,1210 nM,–,–,–
Cc1cnn(CC[C@@H](CC(=O)NC2CCC2)NC(=O)c2cc(-c3ccccc3C(F)(F)F)n(C3CCCC3)n2)c1,–,54 nM,–,Papp A→B [5]: 8 ×10⁻⁶ cm/s; efflux ratio [6]: 3; Papp B→A [4]: 24 ×10⁻⁶ cm/s
C#Cc1ccccc1-c1cc(C(=O)N[C@@H](CCN2CCCCC2)CC(=O)NC2CCC2)nn1C1CCCC1,267 nM,–,–,–
O=C(C[C@H](CCN1CCCCC1)NC(=O)c1cc(-c2ccccc2C2CC2)n(C2CCCC2)n1)NC1CCC1,–,6.4 nM,70.1%,–
CN(C(=O)[C@H](CC(=O)NC1CCC1)NC(=O)c1cc(-c2ccccc2C(F)(F)F)n(C2CCCC2)n1)C1CCCCC1,879 nM,–,–,–
CCc1ccccc1-c1cc(C(=O)N[C@@H](CCN2CCCCC2)CC(=O)NC2CCC2)nn1C1CCCC1,–,7 nM,76.5%,–
O=C(C[C@H](CCN1CCCCC1)NC(=O)c1cc(-c2cccc[n+]2[O-])n(C2CCCC2)n1)NC1CCC1,> 10000 nM,–,–,–
COc1cccc(F)c1-c1cc(C(=O)N[C@@H](CCN2CCCCC2)CC(=O)NC2CCC2)nn1C1CCCC1,–,5.6 nM,74.3%,–
O=C(C[C@H](CCN1CCCC(F)(F)C1)NC(=O)c1cc(-c2ccccc2C(F)(F)F)n(C2CCCC2)n1)NC1CCC1,–,3.4 nM,38.7%,Emax [7]: 107%; solubility [8]: 4 µM; EC50 [9]: 5.4 nM; Papp A→B [5]: 33 ×10⁻⁶ cm/s; efflux ratio [6]: 1; fraction unbound [10]: 0.005; Papp B→A [4]: 36 ×10⁻⁶ cm/s
CN(C[C@H](CC(=O)NC1CCC1)NC(=O)c1cc(-c2ccccc2C(F)(F)F)n(C2CCCC2)n1)C1CCCCC1,5120 nM,–,–,–
CN(C)CC[C@@H](CC(=O)NC1CCC1)NC(=O)c1cc(-c2ccccc2C(F)(F)F)n(C2CCCC2)n1,834 nM,–,–,–
CC(C)CN(C)CC[C@@H](CC(=O)NC1CCC1)NC(=O)c1cc(-c2ccccc2C(F)(F)F)n(C2CCCC2)n1,–,0.35 nM,63.6%,–
O=C(C[C@H](CCN1CCOCC1)NC(=O)c1cc(-c2ccccc2C(F)(F)F)n(C2CCCC2)n1)NC1CCC1,69 nM,28 nM,–,–
O=C(C[C@H](CCc1ccc(F)cc1)NC(=O)c1cc(-c2ccccc2C(F)(F)F)n(C2CCCC2)n1)NC1CCC1,103 nM,15 nM,–,–
O=C(C[C@H](CCN1CCCCC1)NC(=O)c1cc(-c2ccccc2C(F)(F)F)n(C2CCCC2)n1)NC1CCC1,–,2.4 nM,74.6%,efflux ratio [6]: 304; Papp B→A [4]: 52 ×10⁻⁶ cm/s
O=C(C[C@H](CCN1CCCC[C@H]1C(F)(F)F)NC(=O)c1cc(-c2ccccc2C(F)(F)F)n(C2CCCC2)n1)NC1CCC1,31 nM,6 nM,6.04%,–
O=C(C[C@H](CCN1CCCC(F)(F)C1)NC(=O)c1cc(-c2ccccc2C(F)(F)F)n(C2CCCC2)n1)Nc1nnn[nH]1,24 nM,6.5 nM,–,Emax [7]: 80%; solubility [8]: > 1000 µM; EC50 [9]: 463 nM; bioavailability [11]: > 95%; MRT [12]: 5.1 h; Papp A→B [5]: 8 ×10⁻⁶ cm/s; efflux ratio [6]: 1; Tmax [13]: 0.4 h; CL/F [14]: 28 mL/min/kg; fraction unbound [10]: < 0.006; AUC at 24 h [15]: 5850 ng·h/mL; Papp B→A [4]: 8 ×10⁻⁶ cm/s; half-life [16]: 4.1 h; Cmax [17]: 1580 ng/mL
